Measurements published in ChEMBL document CHEMBL5113522, “Discovery of CH7057288 as an Orally Bioavailable, Selective, and Potent pan-TRK Inhibitor” (J Med Chem, 2022).

What was measured:
[1] = molecular target: High affinity nerve growth factor receptor (Homo sapiens, UniProt P04629); assay: Inhibition of TRKA (unknown origin)
[2] = molecular target: BDNF/NT-3 growth factors receptor (Homo sapiens, UniProt Q16620); assay: Inhibition of TRKB (unknown origin)
[3] = molecular target: NT-3 growth factor receptor (Homo sapiens, UniProt Q16288); assay: Inhibition of TRKC (unknown origin)
[4] = molecular target: Vascular endothelial growth factor receptor 2 (Homo sapiens, UniProt P35968); assay: Inhibition of KDR (unknown origin)
[5] = molecular target: Proto-oncogene tyrosine-protein kinase Src (Homo sapiens, UniProt P12931); assay: Inhibition of Src (unknown origin)
[6] = molecular target: ALK tyrosine kinase receptor (Homo sapiens, UniProt Q9UM73); assay: Inhibition of ALK (unknown origin)
[7] = molecular target: Epidermal growth factor receptor (Homo sapiens, UniProt P00533); assay: Inhibition of EGFR (unknown origin)
[8] = molecular target: Fibroblast growth factor receptor 2 (Homo sapiens, UniProt P21802); assay: Inhibition of FGFR2 (unknown origin)
[9] = molecular target: Receptor tyrosine-protein kinase erbB-2 (Homo sapiens, UniProt P04626); assay: Inhibition of HER2 (unknown origin)
Insulin receptor = Insulin receptor (Homo sapiens, UniProt P06213); assay: Inhibition of INSR (unknown origin)
[10] = molecular target: Tyrosine-protein kinase JAK2 (Homo sapiens, UniProt O60674); assay: Inhibition of JAK2 (unknown origin)
[11] = molecular target: Hepatocyte growth factor receptor (Homo sapiens, UniProt P08581); assay: Inhibition of MET (unknown origin)
[12] = molecular target: RAC-alpha serine/threonine-protein kinase (Homo sapiens, UniProt P31749); assay: Inhibition of AKT1 (unknown origin)
[13] = molecular target: Cyclin-dependent kinase 1 (Homo sapiens, UniProt P06493); assay: Inhibition of CDK1 (unknown origin)
[14] = molecular target: Serine/threonine-protein kinase Chk1 (Homo sapiens, UniProt O14757); assay: Inhibition of CHK1 (unknown origin)
[15] = molecular target: cAMP-dependent protein kinase (PKA) (Homo sapiens, UniProt P22694+P17612+P22612); assay: Inhibition of PKA (unknown origin); format: protein assay
[16] = molecular target: Protein kinase C alpha type (Homo sapiens, UniProt P17252); assay: Inhibition of PKCalpha (unknown origin)
[17] = molecular target: RAF proto-oncogene serine/threonine-protein kinase (Homo sapiens, UniProt P04049); assay: Inhibition of RAF1 (unknown origin)
CYP3A4 = CYP3A4 (Homo sapiens, UniProt P08684); assay: Induction of CYP3A4 in human hepatocytes assessed as fold induction at 1 uM using testosterone as substrate preincubated with replacement of fresh medium containing compound every 24 hrs for 72 hrs followed by substrate addition and measured after 1 hr by LC-MS/MS analysis relative to control; format: ADME, cell-based, Hepatocyte; conditions: probe testosterone, time 73 hrs, read-out: FC
[18] = molecular target: Tyrosine-protein kinase Lck (Homo sapiens, UniProt P06239); assay: Inhibition of LCK (unknown origin)
NIH3T3 [19] = assay: Antiproliferative activity against […] NIH3T3 cells expressing MPRIP-NTRK1 assessed as cell growth inhibition incubated for 4 to 7 days by CellTiter-Glo Luminescent Cell Viability Assay; format: functional, cell-based; conditions: Mus musculus
NIH3T3 [20] = assay: Antitumor activity against mouse NIH3T3 cells implanted in mouse assessed as tumor growth inhibition at 0.16 mg/kg, po administered once daily for 11 days and measured on day 12 relative to control; format: functional; conditions: NIH3T3, 288 h, time 12 day, read-out: TGI
NIH3T3 [21] = assay: Antitumor activity against mouse NIH3T3 cells implanted in mouse assessed as tumor growth inhibition at 0.63 mg/kg, po administered once daily for 11 days and measured on day 12 relative to control; format: functional; conditions: NIH3T3, 288 h, time 12 day, read-out: TGI
NIH3T3 [22] = assay: Antitumor activity against mouse NIH3T3 cells implanted in mouse assessed as tumor growth inhibition at 2.5 mg/kg, po administered once daily for 11 days and measured on day 12 relative to control; format: functional; conditions: NIH3T3, 288 h, time 12 day, read-out: TGI
NIH3T3 [23] = assay: Antitumor activity against mouse NIH3T3 cells implanted in mouse assessed as tumor growth inhibition at 10 mg/kg, po administered once daily for 11 days and measured on day 12 relative to control; format: functional; conditions: NIH3T3, 288 h, time 12 day, read-out: TGI
NIH3T3 [24] = assay: Antitumor activity against mouse NIH3T3 cells implanted in mouse assessed as tumor regression at 2.5 mg/kg, po administered once daily for 11 days and measured on day 12 relative to control; format: functional; conditions: time 12 day
NIH3T3 [25] = assay: Antitumor activity against mouse NIH3T3 cells implanted in mouse assessed as tumor regression at 10 mg/kg, po administered once daily for 11 days and measured on day 12 relative to control; format: functional; conditions: time 12 day
[26] = Toxicity in mouse assessed as body weight loss at 10 mg/kg, po administered once daily for 11 days and measured on day 12; format: organism-based; conditions: in vivo, 288 h, time 12 day
[27] = Antitumor activity against human CUTO-3 cells xenografted in mouse assessed as tumor growth inhibition at 10 mg/kg, po administered once daily for 11 days and measured on day 12 relative to control; format: functional; conditions: CUTO-3, 288 h, time 12 day, read-out: TGI
[28] = Oral bioavailability in Wistar Hannover rat at 1 mg/kg by LC-MS analysis; format: ADME, organism-based; conditions: in vivo
[29] = Oral bioavailability in Beagle dog at 1 mg/kg by LC-MS analysis; format: ADME, organism-based, Canis lupus familiaris; conditions: in vivo
[30] = AUC in Wistar Hannover rat at 1 mg/kg, po by LC-MS analysis; format: ADME, organism-based; parameters: dose 1 mg/kg, route po; conditions: in vivo
[31] = AUC in Beagle dog at 1 mg/kg, po by LC-MS analysis; format: ADME, organism-based, Canis lupus familiaris; parameters: dose 1 mg/kg, route po; conditions: in vivo
[32] = Cmax in Wistar Hannover rat at 1 mg/kg, po by LC-MS analysis; format: ADME, organism-based; parameters: dose 1 mg/kg, route po; conditions: in vivo
[33] = Cmax in Beagle dog at 1 mg/kg, po by LC-MS analysis; format: ADME, organism-based, Canis lupus familiaris; parameters: dose 1 mg/kg, route po; conditions: in vivo
[34] = Half life in Wistar Hannover rat at 1 mg/kg, po by LC-MS analysis; format: ADME, organism-based; conditions: in vivo
[35] = Half life in Beagle dog at 1 mg/kg, po by LC-MS analysis; format: ADME, organism-based, Canis lupus familiaris; conditions: in vivo
[36] = Clearance in Wistar Hannover rat at 1 mg/kg, iv by LC-MS analysis; format: ADME, organism-based; conditions: in vivo
[37] = Clearance in Beagle dog at 1 mg/kg, iv by LC-MS analysis; format: ADME, organism-based, Canis lupus familiaris; conditions: in vivo
[38] = Volume of distribution at steady state in Wistar Hannover rat at 1 mg/kg, iv by LC-MS analysis; format: ADME, organism-based; conditions: in vivo, read-out: Vdss
[39] = Volume of distribution at steady state in Beagle dog at 1 mg/kg, iv by LC-MS analysis; format: ADME, organism-based, Canis lupus familiaris; conditions: in vivo, read-out: Vdss
[40] = Half life in Wistar Hannover rat at 1 mg/kg, iv by LC-MS analysis; format: ADME, organism-based; conditions: in vivo
[41] = Half life in Beagle dog at 1 mg/kg, iv by LC-MS analysis; format: ADME, organism-based, Canis lupus familiaris; conditions: in vivo

Tyrosine-protein kinase JAK2, sequence (O60674 whole entry): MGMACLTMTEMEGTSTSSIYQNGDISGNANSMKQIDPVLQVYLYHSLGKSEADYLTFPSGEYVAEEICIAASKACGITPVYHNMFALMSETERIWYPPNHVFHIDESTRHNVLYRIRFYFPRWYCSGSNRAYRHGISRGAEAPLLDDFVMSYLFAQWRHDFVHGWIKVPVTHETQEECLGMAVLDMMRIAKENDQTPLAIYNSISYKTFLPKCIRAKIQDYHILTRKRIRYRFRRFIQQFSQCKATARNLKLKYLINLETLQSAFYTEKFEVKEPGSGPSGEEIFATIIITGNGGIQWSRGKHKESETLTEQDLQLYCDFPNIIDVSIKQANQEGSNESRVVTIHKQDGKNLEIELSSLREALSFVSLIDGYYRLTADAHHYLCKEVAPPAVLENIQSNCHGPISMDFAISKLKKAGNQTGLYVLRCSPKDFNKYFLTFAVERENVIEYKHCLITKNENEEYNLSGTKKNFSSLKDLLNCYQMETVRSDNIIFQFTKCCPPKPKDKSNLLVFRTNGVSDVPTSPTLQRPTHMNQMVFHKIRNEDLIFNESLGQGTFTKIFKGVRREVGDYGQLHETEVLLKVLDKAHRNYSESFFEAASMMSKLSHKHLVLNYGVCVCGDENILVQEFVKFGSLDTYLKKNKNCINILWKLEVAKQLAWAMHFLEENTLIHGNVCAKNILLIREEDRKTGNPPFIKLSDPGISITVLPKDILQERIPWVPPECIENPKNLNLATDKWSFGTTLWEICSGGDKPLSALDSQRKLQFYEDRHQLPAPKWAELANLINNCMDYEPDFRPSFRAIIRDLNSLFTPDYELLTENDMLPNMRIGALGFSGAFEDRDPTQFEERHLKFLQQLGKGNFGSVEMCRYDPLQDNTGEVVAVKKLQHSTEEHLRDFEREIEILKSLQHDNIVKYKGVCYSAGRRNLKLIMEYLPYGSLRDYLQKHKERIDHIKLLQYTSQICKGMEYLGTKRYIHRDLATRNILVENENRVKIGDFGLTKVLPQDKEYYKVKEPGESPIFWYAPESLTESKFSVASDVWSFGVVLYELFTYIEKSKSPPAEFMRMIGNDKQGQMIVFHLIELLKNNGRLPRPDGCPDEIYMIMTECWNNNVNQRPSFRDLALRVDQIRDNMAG
RAF proto-oncogene serine/threonine-protein kinase, sequence (P04049 whole entry): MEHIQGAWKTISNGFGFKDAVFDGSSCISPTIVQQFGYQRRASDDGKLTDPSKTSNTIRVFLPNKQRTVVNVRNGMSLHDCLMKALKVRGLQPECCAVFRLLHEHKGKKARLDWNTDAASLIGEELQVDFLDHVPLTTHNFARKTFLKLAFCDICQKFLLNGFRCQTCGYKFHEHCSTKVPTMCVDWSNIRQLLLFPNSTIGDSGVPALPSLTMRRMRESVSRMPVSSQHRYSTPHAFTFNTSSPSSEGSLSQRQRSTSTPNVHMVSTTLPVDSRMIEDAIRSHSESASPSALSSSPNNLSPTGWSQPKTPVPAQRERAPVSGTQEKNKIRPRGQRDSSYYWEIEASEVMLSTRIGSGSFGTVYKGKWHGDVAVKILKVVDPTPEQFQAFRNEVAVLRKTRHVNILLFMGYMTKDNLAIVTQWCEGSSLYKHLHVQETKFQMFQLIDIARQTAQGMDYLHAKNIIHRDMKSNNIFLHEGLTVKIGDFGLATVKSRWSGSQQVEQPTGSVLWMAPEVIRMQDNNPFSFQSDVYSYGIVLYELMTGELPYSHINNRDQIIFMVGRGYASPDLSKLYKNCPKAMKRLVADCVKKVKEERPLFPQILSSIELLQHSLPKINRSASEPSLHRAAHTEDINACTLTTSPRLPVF
ALK tyrosine kinase receptor, sequence (Q9UM73 whole entry): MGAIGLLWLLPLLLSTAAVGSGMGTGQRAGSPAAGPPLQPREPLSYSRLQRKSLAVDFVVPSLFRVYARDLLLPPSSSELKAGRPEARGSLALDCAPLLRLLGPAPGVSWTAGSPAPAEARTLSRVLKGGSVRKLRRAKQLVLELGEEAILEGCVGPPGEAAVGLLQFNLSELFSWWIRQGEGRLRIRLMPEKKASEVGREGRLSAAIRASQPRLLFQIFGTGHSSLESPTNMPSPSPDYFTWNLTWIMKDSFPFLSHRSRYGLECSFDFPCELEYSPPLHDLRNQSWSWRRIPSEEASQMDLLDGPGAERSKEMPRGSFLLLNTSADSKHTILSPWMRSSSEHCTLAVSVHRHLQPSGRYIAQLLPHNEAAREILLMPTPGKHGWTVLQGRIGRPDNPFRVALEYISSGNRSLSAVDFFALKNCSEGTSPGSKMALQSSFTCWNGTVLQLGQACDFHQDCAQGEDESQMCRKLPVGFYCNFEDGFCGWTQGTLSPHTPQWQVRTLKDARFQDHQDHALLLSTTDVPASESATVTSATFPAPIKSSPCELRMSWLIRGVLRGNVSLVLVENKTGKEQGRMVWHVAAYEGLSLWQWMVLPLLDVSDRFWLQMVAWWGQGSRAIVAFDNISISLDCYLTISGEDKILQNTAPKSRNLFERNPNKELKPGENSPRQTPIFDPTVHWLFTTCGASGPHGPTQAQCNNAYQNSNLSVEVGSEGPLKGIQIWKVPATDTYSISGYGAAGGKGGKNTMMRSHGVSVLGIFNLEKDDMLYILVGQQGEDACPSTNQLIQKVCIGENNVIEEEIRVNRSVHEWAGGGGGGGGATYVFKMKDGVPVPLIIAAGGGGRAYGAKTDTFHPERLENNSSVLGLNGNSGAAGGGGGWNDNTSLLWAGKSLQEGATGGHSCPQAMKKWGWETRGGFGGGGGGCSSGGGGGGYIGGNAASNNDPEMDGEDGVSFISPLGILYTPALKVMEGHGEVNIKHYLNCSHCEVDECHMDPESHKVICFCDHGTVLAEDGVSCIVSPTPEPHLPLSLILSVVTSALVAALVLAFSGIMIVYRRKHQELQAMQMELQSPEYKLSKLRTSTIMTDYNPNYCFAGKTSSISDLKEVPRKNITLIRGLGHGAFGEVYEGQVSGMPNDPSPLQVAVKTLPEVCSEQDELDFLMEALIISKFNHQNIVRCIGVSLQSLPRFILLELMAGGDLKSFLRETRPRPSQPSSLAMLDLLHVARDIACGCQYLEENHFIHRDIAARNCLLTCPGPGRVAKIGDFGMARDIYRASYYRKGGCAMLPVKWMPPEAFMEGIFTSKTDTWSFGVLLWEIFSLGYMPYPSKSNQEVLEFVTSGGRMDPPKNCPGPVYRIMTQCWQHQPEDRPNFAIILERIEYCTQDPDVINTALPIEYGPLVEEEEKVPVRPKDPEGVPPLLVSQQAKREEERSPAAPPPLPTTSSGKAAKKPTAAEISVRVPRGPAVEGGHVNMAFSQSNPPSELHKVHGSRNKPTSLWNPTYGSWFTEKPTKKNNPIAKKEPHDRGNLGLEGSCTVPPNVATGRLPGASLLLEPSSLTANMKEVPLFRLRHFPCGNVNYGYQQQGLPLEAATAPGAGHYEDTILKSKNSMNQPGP
High affinity nerve growth factor receptor, sequence (P04629 whole entry): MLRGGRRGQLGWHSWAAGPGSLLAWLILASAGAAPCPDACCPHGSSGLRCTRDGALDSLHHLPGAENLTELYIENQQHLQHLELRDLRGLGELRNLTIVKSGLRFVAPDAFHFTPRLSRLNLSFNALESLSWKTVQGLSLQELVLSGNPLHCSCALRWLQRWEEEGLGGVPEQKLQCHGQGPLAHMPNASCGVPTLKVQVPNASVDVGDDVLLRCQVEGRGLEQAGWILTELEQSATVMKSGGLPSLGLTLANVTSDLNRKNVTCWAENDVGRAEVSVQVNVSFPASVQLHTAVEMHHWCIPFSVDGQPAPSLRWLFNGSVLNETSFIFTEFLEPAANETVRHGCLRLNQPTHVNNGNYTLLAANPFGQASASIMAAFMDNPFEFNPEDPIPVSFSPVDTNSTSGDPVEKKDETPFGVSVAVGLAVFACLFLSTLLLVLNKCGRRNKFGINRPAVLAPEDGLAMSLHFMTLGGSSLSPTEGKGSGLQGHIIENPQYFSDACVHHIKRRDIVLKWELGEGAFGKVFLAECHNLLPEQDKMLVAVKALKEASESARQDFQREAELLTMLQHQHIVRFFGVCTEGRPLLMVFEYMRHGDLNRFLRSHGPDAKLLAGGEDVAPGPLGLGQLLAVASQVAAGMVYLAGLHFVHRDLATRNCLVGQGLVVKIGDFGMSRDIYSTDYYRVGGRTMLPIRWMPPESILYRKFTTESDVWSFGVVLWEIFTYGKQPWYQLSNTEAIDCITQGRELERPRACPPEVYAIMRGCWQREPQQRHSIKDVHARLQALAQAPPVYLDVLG
Tyrosine-protein kinase Lck, sequence (P06239 whole entry): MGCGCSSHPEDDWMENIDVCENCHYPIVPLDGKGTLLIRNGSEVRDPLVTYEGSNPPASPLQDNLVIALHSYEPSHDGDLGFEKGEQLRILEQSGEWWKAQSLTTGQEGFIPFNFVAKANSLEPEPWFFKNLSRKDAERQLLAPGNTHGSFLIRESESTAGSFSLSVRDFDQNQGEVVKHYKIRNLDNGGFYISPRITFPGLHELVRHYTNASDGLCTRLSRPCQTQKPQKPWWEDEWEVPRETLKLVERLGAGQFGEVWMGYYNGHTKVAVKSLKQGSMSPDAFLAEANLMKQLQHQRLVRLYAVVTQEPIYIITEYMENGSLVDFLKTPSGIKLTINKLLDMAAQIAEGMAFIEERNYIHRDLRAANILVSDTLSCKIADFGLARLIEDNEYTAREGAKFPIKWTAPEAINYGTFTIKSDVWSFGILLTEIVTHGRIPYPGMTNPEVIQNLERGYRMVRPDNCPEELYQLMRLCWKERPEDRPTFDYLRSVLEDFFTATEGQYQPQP
Cyclin-dependent kinase 1, sequence (P06493 whole entry): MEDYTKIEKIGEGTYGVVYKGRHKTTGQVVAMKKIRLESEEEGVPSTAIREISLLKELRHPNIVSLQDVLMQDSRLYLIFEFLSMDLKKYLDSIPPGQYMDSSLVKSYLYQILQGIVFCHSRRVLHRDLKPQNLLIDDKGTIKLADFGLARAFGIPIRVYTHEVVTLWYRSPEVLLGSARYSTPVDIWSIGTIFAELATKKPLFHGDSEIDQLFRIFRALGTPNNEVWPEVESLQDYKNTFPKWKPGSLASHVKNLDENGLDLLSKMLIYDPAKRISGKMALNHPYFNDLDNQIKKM

Cc1cc(C(=O)NC(C)(C)C)cc(C#Cc2ccc3c4c(oc3c2)C(C)(C)c2cc(NS(C)(=O)=O)ccc2C4=O)n1
IC50 [1]: 0.0012 µM
IC50 [2]: 0.002 µM
IC50 [3]: 0.0028 µM
IC50 [4]: > 1 µM
IC50 [5]: > 10 µM
IC50 [6]: > 10 µM
IC50 [7]: > 10 µM
IC50 [8]: > 10 µM
IC50 [9]: > 10 µM
IC50 (Insulin receptor): > 10 µM
IC50 [10]: > 10 µM
IC50 [11]: > 10 µM
IC50 [12]: > 10 µM
IC50 [13]: > 10 µM
IC50 [14]: > 10 µM
IC50 [15]: > 10 µM
IC50 [16]: > 10 µM
IC50 [17]: > 10 µM
fold induction at 1 h, 1 µM (CYP3A4): 3
IC50 [18]: 0.3 µM
IC50 (NIH3T3 [19]): 0.0084 µM
inhibition in vivo at 0.16 mg/kg (NIH3T3 [20]): 14%
inhibition in vivo at 0.63 mg/kg (NIH3T3 [21]): 16%
inhibition in vivo at 2.5 mg/kg (NIH3T3 [22]): 102%
inhibition in vivo at 10 mg/kg (NIH3T3 [23]): 105%
Activity (NIH3T3 [24]): 26%
Activity (NIH3T3 [25]): 72%
Activity [26]: Non-Toxic
inhibition in vivo at 10 mg/kg [27]: 171%
bioavailability [28]: 38%
bioavailability [29]: 97.5%
AUC [30]: 5950 ng·h/mL
AUC [31]: 11000 ng·h/mL
Cmax [32]: 581 ng/mL
Cmax [33]: 763 ng/mL
half-life [34]: 9.01 h
half-life [35]: 15.2 h
clearance [36]: 1.07 mL/min/kg
clearance [37]: 1.48 mL/min/kg
Vd [38]: 0.587 L/kg
Vd [39]: 1.69 L/kg
half-life [40]: 7.49 h
half-life [41]: 12.7 h
